# System: Acinetobacter baumannii ATCC17978
# Assay: Antimicrobial susceptibility testing, 90% growth inhibitory concentration (IC90) determination, ATCC17978
# Format: cell-based
# Details: Iso-Sensitest broth, OD 600 nm over 16 h, 35±2° C., read-out: ATCC 17978 IC90
# Experimental: Antimicrobial Susceptibility Testing: 90% Growth Inhibitory Concentration (IC90) Determination The in vitro antimicrobial activity of the compounds was determined according to the following procedure: The assay used a 10-points Iso-Sensitest broth medium to measure quantitatively the in vitro activity of the compounds against Acinetobacter baumannii ATCC17978 or ATCC17961. Stock compounds in DMSO were serially twofold diluted (e.g. range from 50 to 0.097 μM final concentration) in 384 wells microtiter plates and inoculated with 49 μl the bacterial suspension in Iso-Sensitest medium to have a final cell concentration of ˜5×10^(5) CFU/ml in a final volume/well of 50 ul/well. Microtiter plates were incubated at 35±2° C. Bacterial cell growth was determined with the measurement of optical density at X=600 nm each 20 minutes over a time course of 16 h. Growth inhibition was calculated during the logarithmic growth of the bacterial cells with determination of the concentration inhibiting 50% (IC50) and 90% (IC90) of the growth. Table 1 provides the 90% growth inhibitory concentrations (IC90) in micromoles per liter of the compounds of present invention obtained against the strain Acinetobacter baumannii ATCC17978.
row,IC90 [µM],Structure (SMILES)
1,0.36,"Cn1c(-c2ccc(OCC#N)c(F)c2F)cnc1C(=O)Nc1ccc(C(=O)NCCNC(=O)C2CCNCC2)c(Cl)c1 [Example B15, N-[2-[[2-chloro-4-[[5-[4-(cyanomethoxy)-2,3-difluoro-phenyl]-1-methyl-imidazole-2-carbonyl]amino]benzoyl]amino]ethyl]piperidine-4-carboxamide;2,2,2-trifluoroacetic acid]"
2,0.35,"Cn1c(-c2ccc(OCC#N)c(F)c2F)cnc1C(=O)Nc1ccc(C(=O)NCCNC(=O)C2(O)CCNCC2)c(Cl)c1 [Example B16, N-[2-[[2-chloro-4-[[5-[4-(cyanomethoxy)-2,3-difluoro-phenyl]-1-methyl-imidazole-2-carbonyl]amino]benzoyl]amino]ethyl]-4-hydroxy-piperidine-4-carboxamide;2,2,2-trifluoroacetic acid]"
3,0.084,"COc1ccc(-c2cnc(C(=O)Nc3ccc(C(=O)NC4CN(C(=O)CN)C4)c(Cl)c3)n2C)c(F)c1F [Example B17, N-[4-[[1-(2-aminoacetyl)azetidin-3-yl]carbamoyl]-3-chloro-phenyl]-5-(2,3-difluoro-4-methoxy-phenyl)-1-methyl-imidazole-2-carboxamide;formic acid]"
4,0.24,"COc1ccc(-c2cnc(C(=O)Nc3ccc(C(=O)NCC4CN(C(=O)CN)C4)c(Cl)c3)n2C)c(F)c1F [Example B18, N-[4-[[1-(2-aminoacetyl)azetidin-3-yl]methylcarbamoyl]-3-chloro-phenyl]-5-(2,3-difluoro-4-methoxy-phenyl)-1-methyl-imidazole-2-carboxamide;formic acid]"
5,0.16,"COc1ccc(-c2cnc(C(=O)Nc3ccc(C(=O)N[C@H]4C[C@@H](C(=O)NCCN)C4)c(Cl)c3)n2C)c(F)c1F [Example B19, N-[4-[[3-(2-aminoethylcarbamoyl)cyclobutyl]carbamoyl]-3-chloro-phenyl]-5-(2,3-difluoro-4-methoxy-phenyl)-1-methyl-imidazole-2-carboxamide;formic acid]"
6,0.21,"COc1ccc(-c2cnc(C(=O)Nc3ccc(C(=O)N[C@H]4C[C@@H](C(=O)N5CC(N)C5)C4)c(Cl)c3)n2C)c(F)c1F [Example B20, N-[4-[[3-(3-aminoazetidine-1-carbonyl)cyclobutyl]carbamoyl]-3-chloro-phenyl]-5-(2,3-difluoro-4-methoxy-phenyl)-1-methyl-imidazole-2-carboxamide;formic acid]"
7,0.098,"COc1ccc(-c2cnc(C(=O)Nc3ccc(C(=O)N[C@H]4C[C@@H](C(=O)N[C@H]5C[C@@H](N)C5)C4)c(Cl)c3)n2C)c(F)c1F [Example B21, N-[4-[[3-[(3-aminocyclobutyl)carbamoyl]cyclobutyl]carbamoyl]-3-chloro-phenyl]-5-(2,3-difluoro-4-methoxy-phenyl)-1-methyl-imidazole-2-carboxamide;2,2,2-trifluoroacetic acid]"
8,0.32,"CCc1cc(NC(=O)c2ncc(-c3ccc(OC)c(F)c3F)n2C)ccc1C(=O)N[C@H]1C[C@@H](C(=O)NCCN)C1 [Example B22, N-[4-[[3-(2-aminoethylcarbamoyl)cyclobutyl]carbamoyl]-3-ethyl-phenyl]-5-(2,3-difluoro-4-methoxy-phenyl)-1-methyl-imidazole-2-carboxamide;2,2,2-trifluoroacetic acid]"
9,0.3,"CCc1cc(NC(=O)c2ncc(-c3ccc(OC)c(F)c3F)n2C)ccc1C(=O)NC1CN(C(=O)CN)C1 [Example B23, N-[4-[[1-(2-aminoacetyl)azetidin-3-yl]carbamoyl]-3-ethyl-phenyl]-5-(2,3-difluoro-4-methoxy-phenyl)-1-methyl-imidazole-2-carboxamide;formic acid]"
10,1,"Cc1cc(NC(=O)c2ncc(-c3ccc(OCC#N)c(F)c3F)n2C)ccc1C(=O)NCCNC(=O)[C@H]1C[C@@](C)(O)CN1 [Example B24, 5-[4-(cyanomethoxy)-2,3-difluoro-phenyl]-N-[4-[2-[[(2R,4R)-4-hydroxy-4-methyl-pyrrolidine-2-carbonyl]amino]ethylcarbamoyl]-3-methyl-phenyl]-1-methyl-imidazole-2-carboxamide;formic acid]"
11,0.87,"CC[C@]1(O)CN[C@@H](C(=O)NCCNC(=O)c2ccc(NC(=O)c3ncc(-c4ccc(OCC#N)c(F)c4F)n3C)cc2C)C1 [Example B25, 5-[4-(cyanomethoxy)-2,3-difluoro-phenyl]-N-[4-[2-[[(2R,4R)-4-ethyl-4-hydroxy-pyrrolidine-2-carbonyl]amino]ethylcarbamoyl]-3-methyl-phenyl]-1-methyl-imidazole-2-carboxamide;formic acid]"
12,1.2,"COc1ccc(-c2cnc(C(=O)Nc3ccc(C(=O)NCCNC(=O)[C@H]4C[C@@](C)(O)CN4)c(C)c3)n2C)c(F)c1F [Example B26, 5-(2,3-difluoro-4-methoxy-phenyl)-N-[4-[2-[[(2R,4R)-4-hydroxy-4-methyl-pyrrolidine-2-carbonyl]amino]ethylcarbamoyl]-3-methyl-phenyl]-1-methyl-imidazole-2-carboxamide;formic acid]"
13,1.1,"CC[C@]1(O)CN[C@@H](C(=O)NCCNC(=O)c2ccc(NC(=O)c3ncc(-c4ccc(OC)c(F)c4F)n3C)cc2C)C1 [Example B27, 5-(2,3-difluoro-4-methoxy-phenyl)-N-[4-[2-[[(2R,4R)-4-ethyl-4-hydroxy-pyrrolidine-2-carbonyl]amino]ethylcarbamoyl]-3-methyl-phenyl]-1-methyl-imidazole-2-carboxamide;formic acid]"
14,0.51,"COc1ccc(-c2cnc(C(=O)Nc3ccc(C(=O)NCCNC(=O)N[C@@H]4CNC[C@H]4O)c(C)c3)n2C)c(F)c1F [Example B28, 5-(2,3-difluoro-4-methoxy-phenyl)-N-[4-[2-[[(3R,4R)-4-hydroxypyrrolidin-3-yl]carbamoylamino]ethylcarbamoyl]-3-methyl-phenyl]-1-methyl-imidazole-2-carboxamide;formic acid]"
15,0.61,"COc1ccc(-c2cnc(C(=O)Nc3ccc(C(=O)NCCNC(=O)N[C@H]4CNC[C@@H]4O)c(C)c3)n2C)c(F)c1F [Example B29, 5-(2,3-difluoro-4-methoxy-phenyl)-N-[4-[2-[[(3S,4S)-4-hydroxypyrrolidin-3-yl]carbamoylamino]ethylcarbamoyl]-3-methyl-phenyl]-1-methyl-imidazole-2-carboxamide;formic acid]"
16,0.65,"Cc1cc(NC(=O)c2ncc(-c3ccc(OCC#N)c(F)c3F)n2C)ccc1C(=O)NCCNC(=O)N[C@@H]1CNC[C@H]1O [Example B30, 5-[4-(cyanomethoxy)-2,3-difluoro-phenyl]-N-[4-[2-[[(3R,4R)-4-hydroxypyrrolidin-3-yl]carbamoylamino]ethylcarbamoyl]-3-methyl-phenyl]-1-methyl-imidazole-2-carboxamide;formic acid]"
17,0.74,"Cc1cc(NC(=O)c2ncc(-c3ccc(OCC#N)c(F)c3F)n2C)ccc1C(=O)NCCNC(=O)N[C@H]1CNC[C@@H]1O [Example B31, 5-[4-(cyanomethoxy)-2,3-difluoro-phenyl]-N-[4-[2-[[(3S,4S)-4-hydroxypyrrolidin-3-yl]carbamoylamino]ethylcarbamoyl]-3-methyl-phenyl]-1-methyl-imidazole-2-carboxamide;formic acid]"

# Reference: patent publication US20230257354A1, “NOVEL HETEROCYCLIC COMPOUNDS” (Hoffmann-La Roche Inc., priority 2020, published 2023)
